Columns and labels:
[1] = Solubility test in distilled water; type: physicochemical; settings: 10 mg/ml
5α reductase = experiment: Effect on 5α reductase activity: testosterone reacted with liver cell extracts, testosterone and DHT by HPLC; type: biochemical; settings: 1 hour at 37° C.
Procedure: The reactant of putting the liver cell extracts in testosterone and reacting it for 1 hour at 37° C. is the control. After the reaction is completed, the amount of testosterone and DHT were confirmed through HPLC. The HPLC analysis was carried out under the following conditions. • C18 column • UV 240 nm • flow rate: 1 mi/minute • mobile phase: A: 0.1% Formic acid in water • B: 0.1% Formic acid in acetonitrile • gradient: 0 min B 5%˜30 min B 80%

Question: Which results are given for `CC(C)(C)NC(=O)[C@H]1CC[C@H]2[C@@H]3CC[C@H]4NC(=O)C=C[C@]4(C)[C@H]3CC[C@]12C` [finasteride, N-(1,1-dimethylethyl)-3-oxo-(5α,17β)-4-azaandrost-1-ene-17-carboxamide]?
Answer: solubility in water [1]: hardly dissolved in water; concentration of DHT compared with the control (5α reductase): decreased; concentration of testosterone compared with the control (5α reductase): increased

Source: US11357783B2 (CAREGEN CO., LTD., priority 2016, dated 2022)
